Experimental findings from PMC9780888, “4-Isobutylmethcathinone—A Novel Synthetic Cathinone with High In Vitro Cytotoxicity and Strong Receptor Binding Preference of Enantiomers” (Pharmaceuticals, 2022) are described below.

The assay deals with 5637, SH-SY5Y, HMC-3, Hep G2, L929; HaCaT, CaCo-2, MRC-5, BJ cells. The assay can be described thus: WST-1 viability assay, summary ranges over groups of cell lines. The class given is cell-based. Here is the method: Based on the novelty of the IMBcat compound, we aimed to evaluate its in vitro cytotoxicity in selected model cell lines as well as to determine the toxicity of the IBMcat enantiomers, since both the chemical structure and chirality of compounds could play a role in their bioactivity (Table 2). The cytotoxic profile of the IBMcat was determined by a WST-1 viability assay after 72-h treatment. For this purpose, cell lines derived from distinct tissues, often affected by NPSs, were chosen, i.e., cells of kidney, hepatic, neural, urinary, and intestinal origin as well as keratinocytes and primary fibroblasts (HEK 293T, Hep G2, HMC-3, SH-SY5Y, 5637, CaCo-2, HaCaT, MRC-5, and BJ, respectively). […]
In this study, the following cell lines were used: HEK 293T, Hep G2, HMC-3, SH-SY5Y, 5637, CaCo-2, HaCaT, MRC-5, BJ, and L929. […] The selected cell lines were chosen so that not only primary noncancerous cells are evaluated but also cells derived from tissues, which are the most often affected by novel synthetic drugs, i.e., kidney, liver, urinary bladder, and nervous tissue. […]
The cytotoxicity of IBMCat was evaluated in vitro by using a WST-1 viability assay (Sigma-Aldrich, Saint Louis, MO, USA) based on the transformation of a tetrazolium salt into colored formazan in metabolically active cells. […] After 72 h of additional incubation of the cells, their viability was determined by WST-1. […]
For orientation: Tetrazolium dyes change colour on reduction, which living cells bring about.

The structures appear in SMILES notation. Like-named read-outs stand apart in the source and are kept apart here.

With `CNC(C)C(=O)c1ccc(CC(C)C)cc1.Cl` (centres unmarked) [IBMcat, 4-isobutylmethcathinone hydrochloride], the IC50 (usually the concentration at which inhibition is half-maximal) is, setting by setting: (5637, SH-SY5Y, HMC-3 and Hep G2 cells, after 72 h, read-out: IC50 values (range over cell lines)) 18 to 65 µM; (HaCaT, CaCo-2, MRC-5 and BJ cells, 72 h, racemate and enantiomers, read-out: IC50 (range over cell lines)) 329 to 749 µM.
